Experimental data published in US12344610B2, “APOL1 inhibitors and methods of use” (Maze Therapeutics, Inc., priority 2022, dated 2025).

Tested on: human immortalized podocytes inducibly expressing APOL1 G2
Experiment: APOL1 G2 podocyte cell rescue assay (Example B4)
Type: cell-based
Settings: Homo sapiens, differentiated human podocytes, doxycycline-induced APOL1 G2, CellTiter-Glo; geometric mean of at least 2 runs; † = single run
Method in brief: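 Differentiated hTERT-immortalized podocytes (clone D10) with doxycycline-inducible C-terminally HiBiT-tagged APOL1 G2, 6,000 cells/well, treated with doxycycline plus 8-point 3-fold compound series (0.4% DMSO) for 95 h at 37 °C. Viability by CellTiter-Glo luminescence; EC50 as geometric mean of ≥2 runs, each in duplicate.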

First: CC[C@]1(O)C[C@@H](N2C(=O)CCc3cc(OCCN4CCC5(CC4)C(=O)Nc4ccc(Cl)cc45)cnc32)C1 (single isomer, unassigned) [Compound 321, 5-chloro-1′-[2-({7-oxo-8-[(cis)-3-ethyl-3-hydroxycyclobutyl]-5,6,7,8-tetrahydro-1,8-naphthyridin-3-yl}oxy)ethyl]-1,2-dihydrospiro[indole-3,4′-piperidin]-2-one]
Second: CC(C)[C@]1(O)C[C@@H](N2C(=O)CCc3cc(OCCN4CCC5(CC4)C(=O)Nc4ccc(Cl)cc45)cnc32)C1 [Compound 317, 5-chloro-1′-[2-({7-oxo-8-[(cis)-3-hydroxy-3-(propan-2-yl)cyclobutyl]-5,6,7,8-tetrahydro-1,8-naphthyridin-3-yl}oxy)ethyl]-1,2-dihydrospiro[indole-3,4′-piperidin]-2-one]
The EC50 of the first is 2.6-fold higher: 7.65 nM for the first, 2.92 nM for the second. The second is the more potent here.

Going from C[C@]1(O)C[C@@H](n2ncc3cc(OCCN4CCC5(CC4)C(=O)Nc4ccc(Cl)cc45)cnc32)C1 (single isomer, unassigned) [Compound 357, 5-chloro-1′-[2-({1-[(cis)-3-hydroxy-3-methylcyclobutyl]-1H-pyrazolo[3,4-b]pyridin-5-yl}oxy)ethyl]-1,2-dihydrospiro[indole-3,4′-piperidin]-2-one] to C[C@]1(O)C[C@H](n2ncc3cc(OCCN4CCC5(CC4)C(=O)Nc4ccc(Cl)cc45)cnc32)C1 (single isomer, unassigned) [Compound 408, 5-chloro-1′-[2-({1-[(trans)-3-hydroxy-3-methylcyclobutyl]-1H-pyrazolo[3,4-b]pyridin-5-yl}oxy)ethyl]-1,2-dihydrospiro[indole-3,4′-piperidin]-2-one], the EC50 rises from 4.04 nM to 7.05 nM (1.7-fold).

Compared with CC1(O)CC(c2ncc(OCCN3CCC4(CC3)C(=O)Nc3ccc(Cl)cc34)cn2)C1 (single isomer, unassigned) [Compound 393, 5-chloro-1′-[2-({2-[(cis) or (trans)-3-hydroxy-3-methylcyclobutyl]pyrimidin-5-yl}oxy)ethyl]-1,2-dihydrospiro[indole-3,4′-piperidin]-2-one], CCC1(O)CN(c2ncc(OCCN3CCC4(CC3)C(=O)Nc3ccc(Cl)cc34)cn2)C1 [Compound 397, 5-chloro-1′-(2-{[2-(3-ethyl-3-hydroxyazetidin-1-yl)pyrinlidin-5-yl]oxy}ethyl)-1,2-dihydrospiro[indole-3,4′-piperidin]-2-one] is 1.6-fold lower in EC50: 23 nM for the first, 14.3 nM for the second. The second is the more potent here.

Compared with CC(c1ncc(OCCN2CCC3(CC2)C(=O)Nc2ccc(Cl)cc23)cn1)S(C)(=O)=O (centres unmarked) [Compound 1, 5-Chloro-1′-(2-{[2-(1-methanesulfonylethyl)pyrimidin-5-yl]oxy}ethyl)-1,2-dihydrospiro[indole-3,4′-piperidin]-2-one], CS(=O)(=O)C1(c2ncc(OCCN3CCC4(CC3)C(=O)Nc3ccc(Cl)cc34)cn2)CC1 [Compound 4, 5-chloro-1′-(2-{[2-(1-methanesulfonylcyclopropyl)pyrimidin-5-yl]oxy}ethyl)-1,2-dihydrospiro[indole-3,4′-piperidin]-2-one] is 2.1-fold lower in EC50: 18.8 nM for the first, 9.16 nM for the second. The second is the more potent here.

Going from C[C@]1(O)C[C@@H](n2c(=O)ccc3cc(OCCN4CCC5(CC4)C(=O)Nc4ccc(Cl)cc45)cnc32)C1 [Compound 323, 5-chloro-1′-[2-({7-oxo-8-[(cis)-3-hydroxy-3-methylcyclobutyl]-7,8-dihydro-1,8-naphthyridin-3-yl}oxy)ethyl]-1,2-dihydrospiro[indole-3,4′-piperidin]-2-one] to C[C@]1(O)C[C@@H](n2ccc3cc(OCCN4CCC5(CC4)C(=O)Nc4ccc(Cl)cc45)cnc32)C1 [Compound 349, 5-chloro-1′-[2-({1-[(cis)-3-hydroxy-3-methylcyclobutyl]-1H-pyrrolo[2,3-b]pyridin-5-yl}oxy)ethyl]-1,2-dihydrospiro[indole-3,4′-piperidin]-2-one], the EC50 rises from 2.02 nM to 6.81 nM (3.4-fold).

Going from CC(C)(CO)c1ncc(OCCN2CCC3(CC2)C(=O)Nc2ccc(Cl)cc23)cn1 [Compound 334, 5-chloro-1′-(2-{[2-(1-hydroxy-2-methylpropan-2-yl)pyrimidin-5-yl]oxy}ethyl)-1,2-dihydrospiro[indole-3,4′-piperidin]-2-one] to CC(C)(O)c1ncc(OCCN2CCC3(CC2)C(=O)Nc2ccc(Cl)cc23)cc1C(F)(F)F [Compound 371, 5-chloro-1′-(2-{[6-(2-hydroxypropan-2-yl)-5-(trifluoromethyl)pyridin-3-yl]oxy}ethyl)-1,2-dihydrospiro[indole-3,4′-piperidin]-2-one], the EC50 falls from 9.58 nM to 1.1 nM (8.7-fold). The second is the more potent here.

C[C@]1(O)C[C@@H](N2C(=O)Cc3cc(OCCN4CCC5(CC4)C(=O)Nc4ccc(Cl)cc45)cnc32)C1 [Compound 345, 5-chloro-1′-[2-({2-oxo-1-[(cis)-3-hydroxy-3-methylcyclobutyl]-1H,2H,3H-pyrrolo[2,3-b]pyridin-5-yl}oxy)ethyl]-1,2-dihydrospiro[indole-3,4′-piperidin]-2-one] and C[C@]1(O)C[C@@H](N2C(=O)NCc3cc(OCCN4CCC5(CC4)C(=O)Nc4ccc(Cl)cc45)cnc32)C1 [Compound 356, 5-chloro-1′-[2-({2-oxo-1-[(cis)-3-hydroxy-3-methylcyclobutyl]-1H,2H,3H,4H-pyrido[2,3-d]pyrimidin-6-yl}oxy)ethyl]-1,2-dihydrospiro[indole-3,4′-piperidin]-2-one] are within 1.5-fold of each other in EC50: 15.8 nM for the first, 21.5 nM for the second.

Compared with C[C@]1(O)C[C@@H](N2C(=O)Cc3cc(OCCN4CCC5(CC4)C(=O)Nc4ccc(C(F)F)cc45)cnc32)C1 [Compound 346, 5-(difluoromethyl)-1′-[2-({2-oxo-1-[(cis)-3-hydroxy-3-methylcyclobutyl]-1H,2H,3H-pyrrolo[2,3-b]pyridin-5-yl]oxy)ethyl]-1,2-dihydrospiro[indole-3,4′-piperidin]-2-one], C[C@]1(O)C[C@@H](n2ccc3cc(OCCN4CCC5(CC4)C(=O)Nc4ccc(C(F)F)cc45)cnc32)C1 [Compound 350, 5-(difluoromethyl)-1′-[2-({1-[(cis)-3-hydroxy-3-methylcyclobutyl]-1H-pyrrolo[2,3-b]pyridin-5-yl}oxy)ethyl]-1,2-dihydrospiro[indole-3,4′-piperidin]-2-one] is 3.8-fold lower in EC50: 38.8 nM for the first, 10.3 nM for the second.

Compared with C[C@]1(O)C[C@@H](n2cnc3cc(OCCN4CCC5(CC4)C(=O)Nc4ccc(Cl)cc45)cc(C(F)(F)F)c32)C1 [Compound 352, 5-chloro-1′-[2-({1-[(cis)-3-hydroxy-3-methylcyclobutyl]-7-(trifluoromethyl)-1H-1,3-benzodiazol-5-yl}oxy)ethyl]-1,2-dihydrospiro[indole-3,4′-piperidin]-2-one], C[C@]1(O)C[C@@H](n2cnc3cc(OCCN4CCC5(CC4)C(=O)Nc4ccc(C#N)cc45)cc(C(F)(F)F)c32)C1 [Compound 433, 1′-(2-((1-((cis)-3-hydroxy-3-methylcyclobutyl)-7-(trifluoromethyl)-1H-benzo[d]imidazol-5-yl)oxy)ethyl)-2-oxospiro[indoline-3,4′-piperidine]-5-carbonitrile] is 1.9-fold higher in EC50: 1.12 nM for the first, 2.13 nM for the second.

Compared with C[C@]1(O)C[C@@H](n2c(=O)oc3cc(OCCN4CCC5(CC4)C(=O)Nc4ccc(Cl)cc45)cnc32)C1 [Compound 394, 5-chloro-1′-[2-({2-oxo-3-[(cis)-3-hydroxy-3-methylcyclobutyl]-2H,3H-[1,3]oxazolo[4,5-b]pyridin-6-yl}oxy)ethyl]-1,2-dihydrospiro[indole-3,4′-piperidin]-2-one], C[C@]1(O)C[C@@H](n2cc3cc(OCCN4CCC5(CC4)C(=O)Nc4ccc(Cl)cc45)cc(C(F)(F)F)c3n2)C1 [Compound 427, 5-chloro-1′-[2-({2-[(cis)-3-hydroxy-3-methylcyclobutyl]-7-(trifluoromethyl)-2H-indazol-5-yl}oxy)ethyl]-1,2-dihydrospiro[indole-3,4′-piperidin]-2-one] is 8.7-fold lower in EC50: 16.9 nM for the first, 1.95 nM for the second.

First: O=C1Nc2ccc(Cl)cc2C12CCN(CCOc1cnc(N3CC4(CC(O)C4)C3)nc1)CC2 [Compound 396, 5-chloro-1′-{2-[(2-{6-hydroxy-2-azaspiro[3.3]heptan-2-yl}pyrimidin-5-yl)oxy]ethyl}-1,2-dihydrospiro[indole-3,4′-piperidin]-2-one]
Second: C[C@]1(O)C[C@@H](n2nnc3cc(OCCN4CCC5(CC4)C(=O)Nc4ccc(Cl)cc45)cc(C(F)(F)F)c32)C1 [Compound 434, 5-chloro-1′-[2-({1-[(cis)-3-hydroxy-3-methylcyclobutyl]-7-(trifluoromethyl)-1H-1,2,3-benzotriazol-5-yl}oxy)ethyl]-1,2-dihydrospiro[indole-3,4′-piperidin]-2-one]
The EC50 of the first is 12-fold higher: 18.6 nM for the first, 1.5 nM for the second. The second is the more potent here.

Going from CC(CO)(c1ncc(OCCN2CCC3(CC2)C(=O)Nc2ccc(Cl)cc23)cc1C(F)(F)F)S(C)(=O)=O (centres unmarked) [Compound 401, 5-chloro-1′-(2-{[6-(1-hydroxy-2-methanesulfonylpropan-2-yl)-5-(trifluoromethyl)pyridin-3-yl]oxy}ethyl)-1,2-dihydrospiro[indole-3,4′-piperidin]-2-one] to CC(C)(O)c1ncc(OCCN2CCC3(CC2)C(=O)Nc2ccc(C#N)cc23)cc1C(F)(F)F [Compound 411, 1′-(2-{[6-(2-hydroxypropan-2-yl)-5-(trifluoromethyl)pyridin-3-yl]oxy}ethyl)-2-oxo-1,2-dihydrospiro[indole-3,4′-piperidine]-5-carbonitrile], the EC50 falls from 4.62 nM to 1.45 nM (3.2-fold).

First: [2H]C([2H])(Oc1cnc2c(c1)CCC(=O)N2[C@H]1C[C@@](C)(O)C1)C([2H])([2H])N1CCC2(CC1)C(=O)Nc1ccc(Cl)cc12 [Compound 426, 5-chloro-1′-[2-({7-oxo-8-[(cis)-3-hydroxy-3-methylcyclobutyl]-5,6,7,8-tetrahydro-1,8-naphthyridin-3-yl}oxy)(1,1,2,2-^2H4)ethyl]-1,2-dihydrospiro[indole-3,4′-piperidin]-2-one]
Second: C[C@]1(O)C[C@@H](n2cc3cc(OCCN4CCC5(CC4)C(=O)Nc4ccc(C#N)cc45)cc(C(F)(F)F)c3n2)C1 [Compound 428, 2-oxo-1′-[2-({2-[(cis)-3-hydroxy-3-methylcyclobutyl]-7-(trifluoromethyl)-2H-indazol-5-yl}oxy)ethyl]-1,2-dihydrospiro[indole-3,4′-piperidine]-5-carbonitrile]
The EC50 of the first is 3-fold lower: 4.1 nM for the first, 12.2 nM for the second.
